From patent US20250282799A1, “SUBSTITUTED PYRIDO[4,3-d]PYRIMIDINES AS KRAS MODULATORS” (Alterome Therapeutics, Inc., priority 2023, published 2025)

What follows are molecules tested on KRAS G12V dependent lung adenocarcinoma cell line, NCI-H441 (assay: Cellular pERK (Thr202/Tyr204) FRET/HTRF assay). Conditions: Homo sapiens, NCI-H441, cellular pERK (Thr202/Tyr204) HTRF, NCI-H441 cells.
Assay type: cell-based
Method in brief: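 IC50 reflects inhibition of ERK1/2 Thr202/Tyr204 phosphorylation, quantified by HTRF after a 1 hr treatment of KRAS G12V-driven NCI-H441 cells. DMSO served as negative control.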

Structure (SMILES)	IC50
[2H]C([2H])(Oc1nc(N2CCOC[C@H]3[C@H](F)[C@H]32)c2cnc(-c3cc(N)cc4ccc(F)c(C#C)c34)c(Cl)c2n1)[C@@]12CCCN1C[C@H](F)C2 [Example 269, 4-(8-Chloro-4-((1S,7S,8S)-8-fluoro-5-oxa-2-azabicyclo[5.1.0]octan-2-yl)-2-(((2R,7aS)-2-fluorotetrahydro-1H-pyrrolizin-7a(5H)-yl)methoxy-d2)pyrido[4,3-d]pyrimidin-7-yl)-5-ethynyl-6-fluoronaphthalen-2-amine]	< 50 nM
[2H]C([2H])(Oc1nc(N2CCOC[C@H]3[C@H](F)[C@H]32)c2cnc(-c3cc(NC(C)=O)cc4ccc(F)c(C#C)c34)c(F)c2n1)[C@@]12CCCN1C[C@H](F)C2 [Example 263, N-(5-ethynyl-6-fluoro-4-(8-fluoro-4-((1S,7S,8S)-8-fluoro-5-oxa-2-azabicyclo[5.1.0]octan-2-yl)-2-(((2R,7aS)-2-fluorotetrahydro-1H-pyrrolizin-7a(5H)-yl)methoxy-d2)pyrido[4,3-d]pyrimidin-7-yl)naphthalen-2-yl)acetamide]	50 to 500 nM
[2H]C([2H])(F)Oc1c(F)cc(F)c2cccc(-c3ncc4c(N5CCOC[C@H]6[C@H](F)[C@H]65)nc(OC([2H])([2H])[C@@]56CCCN5C[C@H](F)C6)nc4c3F)c12 [Example 151, (1S,7S,8S)-2-(7-(5,7-difluoro-8-(fluoromethoxy-d2)naphthalen-1-yl)-8-fluoro-2-(((2R,7aS)-2-fluorotetrahydro-1H-pyrrolizin-7a(5H)-yl)methoxy-d2)pyrido[4,3-d]pyrimidin-4-yl)-8-fluoro-5-oxa-2-azabicyclo[5.1.0]octane]	< 50 nM
[2H]C([2H])(Oc1nc(N2CCOC[C@H]3[C@H](F)[C@H]32)c2cnc(-c3cc(N)cc4ccc(F)c(C#C)c34)c(F)c2n1)[C@@]12CCCN1C[C@]1(C[C@H]1F)C2 (single isomer, unassigned) [Example 312]	< 50 nM
[2H]C([2H])([2H])Oc1c(F)cc(F)c2cc(N)cc(-c3ncc4c(N5CCOC[C@H]6[C@H](F)[C@H]65)nc(OC[C@@]56CCCN5CC(=C)C6)nc4c3F)c12 [Example 192, 6,8-difluoro-4-(8-fluoro-4-((1S,7S,8S)-8-fluoro-5-oxa-2-azabicyclo[5.1.0]octan-2-yl)-2-(((S)-2-methylenetetrahydro-1H-pyrrolizin-7a(5H)-yl)methoxy)pyrido[4,3-d]pyrimidin-7-yl)-5-(methoxy-d3)naphthalen-2-amine]	< 50 nM
[2H]C([2H])(Oc1nc(N2CCOCC3C2C3(Cl)Cl)c2cnc(-c3cc(N)cc4ccc(F)c(C#C)c34)c(F)c2n1)[C@@]12CCCN1C[C@H](F)C2 (stereo partly drawn) [Example 240, 4-(4-(8,8-dichloro-5-oxa-2-azabicyclo[5.1.0]octan-2-yl)-8-fluoro-2-(((2R,7aS)-2-fluorotetrahydro-1H-pyrrolizin-7a(5H)-yl)methoxy-d2)pyrido[4,3-d]pyrimidin-7-yl)-5-ethynyl-6-fluoronaphthalen-2-amine]	500 to 10000 nM

Other lines, results leading:

IC50	Structure (SMILES)
< 50 nM	C#Cc1c(F)ccc2cc(N)cc(-c3ncc4c(N5CCOC[C@H]6[C@H](F)[C@H]65)nc(OC[C@]56C[C@]7(C[C@H]7F)CN5CCC65CC5)nc4c3F)c12 (single isomer, unassigned) [Example 231]
< 50 nM	[2H]C([2H])(Oc1nc(N2CCOC[C@H]3[C@H](F)[C@H]32)c2cnc(-c3cccc4cccc(C#C)c34)c(F)c2n1)[C@@]12CCCN1C[C@H](F)C2 [Example 319, (1S,7S,8S)-2-(7-(8-ethynylnaphthalen-1-yl)-8-fluoro-2-(((2R,7aS)-2-fluorotetrahydro-1H-pyrrolizin-7a(5H)-yl)methoxy-d2)pyrido[4,3-d]pyrimidin-4-yl)-8-fluoro-5-oxa-2-azabicyclo[5.1.0]octane]
50 to 500 nM	[2H]C([2H])([2H])Oc1c(F)cc(F)c2cccc(-c3ncc4c(N5CCCC[C@H]6[C@H](F)[C@H]65)nc(OC([2H])([2H])[C@@]56CCCN5C[C@H](F)C6)nc4c3F)c12 [Example 140, 7-(5,7-difluoro-8-(methoxy-d3)naphthalen-1-yl)-8-fluoro-4-((1S,7R,8S)-8-fluoro-2-azabicyclo[5.1.0]octan-2-yl)-2-(((2R,7aS)-2-fluorotetrahydro-1H-pyrrolizin-7a(5H)-yl)methoxy-d2)pyrido[4,3-d]pyrimidine]
50 to 500 nM	Cc1c(F)c(N)cc(-c2ncc3c(N4CCCC[C@H]5[C@H](F)[C@H]54)nc(OC[C@]45C/C(=C/F)CN4CCC54CC4)nc3c2F)c1C(F)(F)F [Example 381, 2-fluoro-5-(8-fluoro-4-((1S,7R,8S)-8-fluoro-2-azabicyclo[5.1.0]octan-2-yl)-2-(((R,Z)-6′-(fluoromethylene)tetrahydrospiro[cyclopropane-1,1′-pyrrolizin]-7a′(5′H)-yl)methoxy)pyrido[4,3-d]pyrimidin-7-yl)-3-methyl-4-(trifluoromethyl)aniline]

Same assay, conditions: Homo sapiens, NCI-H441, pERK HTRF, NCI-H441 cells (KRAS G12V)

Structure (SMILES)	IC50
[2H]C([2H])(Oc1nc(N2CCC[C@@H]3C[C@@H]32)c2cnc(-c3cc(N)cc4cc(F)c(F)c(C#C)c34)c(F)c2n1)[C@@]12CCCN1C[C@H](F)C2 [Example 51, 4-(4-((1S,6R)-2-Azabicyclo[4.1.0]heptan-2-yl)-8-fluoro-2-(((2R,7aS)-2-fluorotetrahydro-1H-pyrrolizin-7a(5H)-yl)methoxy-d2)pyrido[4,3-d]pyrimidin-7-yl)-5-ethynyl-6,7-difluoronaphthalen-2-amine]	500 to 10000 nM
[2H]C([2H])(Oc1nc(N2CCOC[C@H]3C[C@H]32)c2cnc(-c3ccc(F)c4sc(N)c(C#N)c34)c(F)c2n1)[C@@]12CCCN1C[C@H](F)C2 [Example 48, 4-(4-((1R,7S)-5-Oxa-2-azabicyclo[5.1.0]octan-2-yl)-8-fluoro-2-(((2R,7aS)-2-fluorotetrahydro-1H-pyrrolizin-7a(5H)-yl)methoxy-d2)pyrido[4,3-d]pyrimidin-7-yl)-2-amino-7-fluorobenzo[b]thiophene-3-carbonitrile]	50 to 500 nM
[2H]C([2H])(Oc1nc(N2CCOC[C@@H]3[C@H](F)[C@@H]32)c2cnc(-c3cc(N)cc4cc(F)c(F)c(C#C)c34)c(F)c2n1)[C@@]12CCCN1C[C@H](F)C2 [Example 29, 5-Ethynyl-6,7-difluoro-4-(8-fluoro-4-((1R,7R,8S)-8-fluoro-5-oxa-2-azabicyclo[5.1.0]octan-2-yl)-2-(((2R,7aS)-2-fluorotetrahydro-1H-pyrrolizin-7a(5H)-yl)methoxy-d2)pyrido[4,3-d]pyrimidin-7-yl)naphthalen-2-amine]	50 to 500 nM

Continued, values first:

IC50	Structure (SMILES)
50 to 500 nM	[2H]C([2H])(Oc1nc(N2CCCO[C@@H]3[C@H](F)[C@@H]32)c2cnc(-c3cc(N)cc4cc(F)c(F)c(C#C)c34)c(F)c2n1)[C@@]12CCCN1C[C@H](F)C2 [Example 22, 5-Ethynyl-6,7-difluoro-4-(8-fluoro-4-((1S,7R,8R)-8-fluoro-2-oxa-6-azabicyclo[5.1.0]octan-6-yl)-2-(((2R,7aS)-2-fluorotetrahydro-1H-pyrrolizin-7a(5H)-yl)methoxy-d2)pyrido[4,3-d]pyrimidin-7-yl)naphthalen-2-amine]
50 to 500 nM	[2H]C([2H])(Oc1nc(N2CCC[C@@H]3[C@@H](F)[C@@H]32)c2cnc(-c3cc(N)cc4cc(F)c(F)c(C#C)c34)c(F)c2n1)[C@@]12CCCN1C[C@H](F)C2 [Example 53, 5-Ethynyl-6,7-difluoro-4-(8-fluoro-4-((1R,6S,7R)-7-fluoro-2-azabicyclo[4.1.0]heptan-2-yl)-2-(((2R,7aS)-2-fluorotetrahydro-1H-pyrrolizin-7a(5H)-yl)methoxy-d2)pyrido[4,3-d]pyrimidin-7-yl)naphthalen-2-amine]
50 to 500 nM	[2H]C([2H])(Oc1nc(N2CCO[C@@H]3[C@@H](F)[C@@H]32)c2cnc(-c3cc(N)cc4cc(F)c(F)c(C#C)c34)c(F)c2n1)[C@@]12CCCN1C[C@H](F)C2 [Example 37, 5-Ethynyl-6,7-difluoro-4-(8-fluoro-4-((1S,6R,7S)-7-fluoro-2-oxa-5-azabicyclo[4.1.0]heptan-5-yl)-2-(((2R,7aS)-2-fluorotetrahydro-1H-pyrrolizin-7a(5H)-yl)methoxy-d2)pyrido[4,3-d]pyrimidin-7-yl)naphthalen-2-amine]
< 50 nM	C#Cc1c(F)ccc2cc(O)cc(-c3ncc4c(N5CCCC[C@H]6C[C@H]65)nc(OC[C@@]56CCCN5C[C@H](F)C6)nc4c3F)c12 [Example 2, 4-(4-((1R,7S)-2-azabicyclo[5.1.0]octan-2-yl)-8-fluoro-2-(((2R,7aS)-2-fluorotetrahydro-1H-pyrrolizin-7a(5H)-yl)methoxy)pyrido[4,3-d]pyrimidin-7-yl)-5-ethynyl-6-fluoronaphthalen-2-ol]

Same assay, conditions: cellular pERK (Thr202/Tyr204) HTRF, NCI-H441 cells

IC50	Structure (SMILES)
500 to 10000 nM	[2H]C([2H])(Oc1nc(N2CCOC[C@H]3[C@H](F)[C@H]32)c2cc(C#N)c(-c3ccc(F)c4sc(N)c(C#N)c34)c(F)c2n1)[C@@]12CCCN1C[C@H](F)C2 (atropisomer, axis not shown; (aS)) [Example 351, (R)-7-(2-amino-3-cyano-7-fluorobenzo[b]thiophen-4-yl)-8-fluoro-4-((1S,7S,8S)-8-fluoro-5-oxa-2-azabicyclo[5.1.0]octan-2-yl)-2-(((2R,7aS)-2-fluorotetrahydro-1H-pyrrolizin-7a(5H)-yl)methoxy-d2)quinazoline-6-carbonitrile]

Same assay, conditions: cellular pERK HTRF, NCI-H441 (KRAS G12V) cells

IC50	Structure (SMILES)
< 50 nM	[2H]C([2H])(Oc1nc(N2CCOC[C@H]3[C@H](F)[C@H]32)c2cc(C#N)c(-c3ccc(F)c4sc(N)c(C#N)c34)c(C)c2n1)[C@@]12CCCN1C[C@H](F)C2 (atropisomer, axis not shown; (aS)) [Example 440, (R)-7-(2-amino-3-cyano-7-fluorobenzo[b]thiophen-4-yl)-4-((1S,7S,8S)-8-fluoro-5-oxa-2-azabicyclo[5.1.0]octan-2-yl)-2-(((2R,7aS)-2-fluorotetrahydro-1H-pyrrolizin-7a(5H)-yl)methoxy-d2)-8-methylquinazoline-6-carbonitrile]
